Laboratory results published in patent US5650173A, “Preparation of biodegradable microparticles containing a biologically active agent” (Alkermes Controlled Therapeutics Inc. II, priority 1996, dated 1997).
“Also recorded” adds a separate entry of the source.

What was measured:
[1] = In Vitro Dissolution of norethindrone (NET) microparticles; assay type: physicochemical; conditions: ethyl acetate alone as solvent; b93: extreme ethyl acetate contents in quench; quench volume varied
[2] = Solubility of risperidone in receiving medium for in vitro dissolution; conditions: 50 mm tris buffer, pH 7.4, aqueous buffer
From the text: Real time and accelerated methodologies were used. The equipment consisted of a Hanson research 6-cell USP paddle (Method II) dissolution apparatus interfaced with a spectrophotometer and data station. Receiving media were continuously recirculated from each cell to flow cells inside the spectrophotometer. The absorbance of the receiving media was monitored at 236 nm for quantification of risperidone.
The real time model measured the release rates of microparticles into a receiving medium consisting of 50 mM tris buffer at pH 7.4 at 37° C. […] The amount of risperidone was kept below 20% of saturation to provide infinite sink conditions.

C#C[C@]1(O)CC[C@H]2[C@@H]3CCC4=CC(=O)CC[C@@H]4[C@H]3CC[C@@]21C [NET, norethindrone]
in vitro release rate from microparticles [1]: Higher than normal release rates; also recorded: quicker release; also recorded: varies slightly

Cc1nc2n(c(=O)c1CCN1CCC(c3noc4cc(F)ccc34)CC1)CCCC2 [Risperidone, risperidone]
solubility [2]: ≥ 500 µg/mL
